ChEMBL document CHEMBL4330134, “Design, synthesis, and bioevaluation of a novel class of (E)-4-oxo-crotonamide derivatives as potent antituberculosis agents” (Bioorg Med Chem Lett, 2019)
Converted amounts (≈) assume the structure as drawn.

Assays:
[1] = tested on: Mycobacterium tuberculosis; assay: Antimycobacterial activity against Mycobacterium tuberculosis H37Rv ATCC 27294 after 4 days by microplate Alamar blue assay; assay type: functional; conditions: H37Rv ATCC 27294, 96 h
[2] = tested on: Mycobacterium tuberculosis; assay: Antimycobacterial activity against Mycobacterium tuberculosis isolate 19769 after 4 days by microplate Alamar blue assay; assay type: functional; conditions: isolate 19769, 96 h
[3] = tested on: Mycobacterium tuberculosis; assay: Antimycobacterial activity against Mycobacterium tuberculosis isolate 19805 after 4 days by microplate Alamar blue assay; assay type: functional; conditions: isolate 19805, 96 h
[4] = tested on: Mycobacterium tuberculosis; assay: Antimycobacterial activity against Mycobacterium tuberculosis isolate 19806 after 4 days by microplate Alamar blue assay; assay type: functional; conditions: isolate 19806, 96 h
[5] = tested on: Mycobacterium tuberculosis; assay: Antimycobacterial activity against Mycobacterium tuberculosis isolate 19852 after 4 days by microplate Alamar blue assay; assay type: functional; conditions: isolate 19852, 96 h
[6] = tested on: Mycobacterium tuberculosis; assay: Antimycobacterial activity against Mycobacterium tuberculosis isolate 19809 after 4 days by microplate Alamar blue assay; assay type: functional; conditions: isolate 19809, 96 h
[7] = tested on: Mycobacterium tuberculosis; assay: Antimycobacterial activity against Mycobacterium tuberculosis isolate 11168 after 4 days by microplate Alamar blue assay; assay type: functional; conditions: isolate 11168, 96 h
[8] = tested on: Mycobacterium tuberculosis; assay: Antimycobacterial activity against Mycobacterium tuberculosis isolate 19810 after 4 days by microplate Alamar blue assay; assay type: functional; conditions: isolate 19810, 96 h
[9] = tested on: Mycobacterium tuberculosis; assay: Antimycobacterial activity against Mycobacterium tuberculosis isolate 19675 after 4 days by microplate Alamar blue assay; assay type: functional; conditions: isolate 19675, 96 h
[10] = tested on: Mycobacterium tuberculosis; assay: Antimycobacterial activity against Mycobacterium tuberculosis isolate 19874 after 4 days by microplate Alamar blue assay; assay type: functional; conditions: isolate 19874, 96 h
[11] = tested on: Mycobacterium tuberculosis; assay: Antimycobacterial activity against Mycobacterium tuberculosis isolate 19863 after 4 days by microplate Alamar blue assay; assay type: functional; conditions: isolate 19863, 96 h
[12] = tested on: Mycobacterium tuberculosis; assay: Antimycobacterial activity against Mycobacterium tuberculosis H37Rv ATCC 27294; assay type: functional
[13] = Toxicity in po dosed BALB/c mouse; assay type: organism-based; conditions: in vivo

SMILES	MIC [1]	further results
CC(=O)/C=C/C(=O)O	> 4 µg/mL	–
COC(=O)/C=C/C(=O)c1cccc2ccccc12	0.45 µg/mL (≈ 1.87 µM)	–
COc1ccc(C(=O)/C=C/C(=O)OC(C)C)cc1	1.64 µg/mL (≈ 6.61 µM)	–
CC(C)OC(=O)/C=C/C(=O)C1CC1	0.68 µg/mL (≈ 3.73 µM)	–
CCOc1ccc(C(=O)/C=C/C(=O)OC(C)C)cc1	0.47 µg/mL (≈ 1.79 µM)	–
CC(C)OC(=O)/C=C/C(=O)c1ccc(Oc2ccccc2)cc1	1.69 µg/mL (≈ 5.45 µM)	–
O=C(O)/C=C/C(=O)c1cccc2ccccc12	> 4 µg/mL	–
CCOC(=O)/C=C/C(=O)c1ccc(Br)cc1	0.52 µg/mL (≈ 1.84 µM)	–
O=C(O)/C=C/C(=O)c1ccc(-c2ccccc2)cc1	> 4 µg/mL	–
CC(C)(C)OC(=O)NCCOC(=O)/C=C/C(=O)c1ccco1	> 4 µg/mL	–
NNC(=O)c1ccncc1 [ISONIAZID]	0.025 µg/mL (≈ 0.182 µM)	–
COc1ccccc1C(=O)/C=C/C(=O)OC(C)C	1.91 µg/mL (≈ 7.69 µM)	–
CC(C)OC(=O)/C=C/C(=O)c1ccc2c(c1)CCO2	1.02 µg/mL (≈ 3.92 µM)	–
CC(C)(C)OC(=O)NCCOC(=O)/C=C/C(=O)C1CCCCC1	> 4 µg/mL	–
CCOC(=O)/C=C/C(=O)c1ccccc1OC	1.82 µg/mL (≈ 7.77 µM)	–
CCN(C)C(=O)/C=C/C(=O)c1cccc([N+](=O)[O-])c1	> 2 µg/mL	–
COC(=O)/C=C/C(=O)C1CCCCC1	1.2 µg/mL (≈ 6.11 µM)	–
O=C(O)/C=C/C(=O)C1CCCCC1	> 4 µg/mL	–
CCOC(=O)/C=C/C(=O)c1ccc2c(c1)CCO2	0.94 µg/mL (≈ 3.82 µM)	–

SMILES	MIC [1]	further results
O=C(O)/C=C/C(=O)c1ccc(OCc2ccccc2)cc1	> 4 µg/mL	–
O=C(O)/C=C/C(=O)c1ccc2c(c1)CCO2	> 4 µg/mL	–
CCOc1ccc(C(=O)/C=C/C(=O)O)cc1	> 4 µg/mL	–
COc1ccc(C(=O)/C=C/C(=O)O)cc1	> 4 µg/mL	–
CN(C)C(=O)/C=C/C(=O)c1ccc(-c2ccccc2)cc1	0.125 µg/mL (≈ 0.447 µM)	MIC [2]: 0.43 µg/mL (≈ 1.54 µM); MIC [3]: 0.25 µg/mL (≈ 0.895 µM); MIC [4]: 0.23 µg/mL (≈ 0.823 µM); MIC [5]: 0.19 µg/mL (≈ 0.68 µM); MIC [6]: 0.48 µg/mL (≈ 1.72 µM); MIC [7]: 0.05 µg/mL (≈ 0.179 µM); MIC [8]: 0.12 µg/mL (≈ 0.43 µM); MIC [9]: 0.45 µg/mL (≈ 1.61 µM); MIC [10]: 0.23 µg/mL (≈ 0.823 µM); MIC [11]: 0.23 µg/mL (≈ 0.823 µM)
CCCN(CCC)C(=O)/C=C/C(=O)c1ccccc1OC	> 2 µg/mL	–
CCN(C)C(=O)/C=C/C(=O)c1ccc(Cl)cc1Cl	> 2 µg/mL	–
CCCN(CCC)C(=O)/C=C/C(=O)c1cccc(Cl)c1	1.91 µg/mL (≈ 6.5 µM)	–
CCOC(=O)/C=C/C(=O)c1ccco1	1.09 µg/mL (≈ 5.61 µM)	–
CCCN(CCC)C(=O)/C=C/C(=O)c1cccc(F)c1	0.96 µg/mL (≈ 3.46 µM)	–
CCCN(CCC)C(=O)/C=C/C(=O)c1ccccc1Cl	> 2 µg/mL	–
COC(=O)/C=C/C(=O)c1ccc(OC)cc1	0.25 µg/mL (≈ 1.14 µM)	MIC [12]: 0.25 µg/mL (≈ 1.14 µM); LD50 [13]: 568 mg/kg
O=C(O)/C=C/C(=O)c1ccc(Br)cc1	> 4 µg/mL	–
CCOc1ccc(C(=O)/C=C/C(=O)OC)cc1	0.41 µg/mL (≈ 1.75 µM)	–
CCN(C)C(=O)/C=C/C(=O)c1ccc(Cl)c(Cl)c1	0.24 µg/mL (≈ 0.839 µM)	–
CCOC(=O)/C=C/C(=O)c1cccc2ccccc12	0.61 µg/mL (≈ 2.4 µM)	–
CC(C)(C)OC(=O)NCCOC(=O)/C=C/C(=O)c1ccc([N+](=O)[O-])cc1	> 4 µg/mL	–
CCOC(=O)/C=C/C(=O)c1ccc(C)cc1	> 4 µg/mL	–
CN(C)C(=O)/C=C/C(=O)c1ccccc1F	0.95 µg/mL (≈ 4.29 µM)	–

SMILES	MIC [1]	further results
CCN(C)C(=O)/C=C/C(=O)c1cccc(Cl)c1	0.97 µg/mL (≈ 3.85 µM)	–
CC(C)(C)OC(=O)NCCOC(=O)/C=C/C(=O)C1CC1	1.45 µg/mL (≈ 5.12 µM)	–
COc1cccc(C(=O)/C=C/C(=O)N(C)C)c1	1.62 µg/mL (≈ 6.94 µM)	–
CCOC(=O)/C=C/C(=O)c1cccc(OC)c1	0.82 µg/mL (≈ 3.5 µM)	–
CCOC(=O)/C=C/C(=O)C1CC1	> 4 µg/mL	–
CCCN(CCC)C(=O)/C=C/C(=O)c1ccccc1F	0.94 µg/mL (≈ 3.39 µM)	–
CCN(C)C(=O)/C=C/C(=O)c1cccc(OC)c1	1.88 µg/mL (≈ 7.6 µM)	–
COc1cccc(C(=O)/C=C/C(=O)OC(C)C)c1	0.92 µg/mL (≈ 3.71 µM)	–
CCN(C)C(=O)/C=C/C(=O)c1ccc(-c2ccccc2)cc1	0.49 µg/mL (≈ 1.67 µM)	–
CC(C)(C)OC(=O)NCCOC(=O)/C=C/C(=O)c1ccc(Cl)cc1Cl	> 4 µg/mL	–
COc1ccccc1C(=O)/C=C/C(=O)O	> 4 µg/mL	–
O=C(O)/C=C/C(=O)c1ccc([N+](=O)[O-])cc1	> 4 µg/mL	–
COc1ccc(C(=O)/C=C/C(=O)O)cc1OC	> 4 µg/mL	–
COC(=O)/C=C/C(=O)c1ccco1	0.52 µg/mL (≈ 2.89 µM)	–
CN(C)C(=O)/C=C/C(=O)c1ccc(Br)cc1	0.25 µg/mL (≈ 0.886 µM)	–
COc1ccc(OC)c(C(=O)/C=C/C(=O)O)c1	> 4 µg/mL	–
CCCN(CCC)C(=O)/C=C/C(=O)c1cccc(C(F)(F)F)c1	> 2 µg/mL	–
CN(C)C(=O)/C=C/C(=O)c1ccc(Cl)cc1Cl	0.41 µg/mL (≈ 1.51 µM)	–
